The source of these data is patent US7109193B2, “Tricyclic diazepines tocolytic oxytocin receptor antagonists” (Wyeth, priority 2001, dated 2006).

The term inhibition denotes the percentage by which the read-out fell short of the control.

One assay deals with T1, human oxytocin receptor (Homo sapiens, UniProt P30559).
T1 construct: host or cells: CHO cells (pcDNA3.1 vector)
T1 sequence (P30559 1-389): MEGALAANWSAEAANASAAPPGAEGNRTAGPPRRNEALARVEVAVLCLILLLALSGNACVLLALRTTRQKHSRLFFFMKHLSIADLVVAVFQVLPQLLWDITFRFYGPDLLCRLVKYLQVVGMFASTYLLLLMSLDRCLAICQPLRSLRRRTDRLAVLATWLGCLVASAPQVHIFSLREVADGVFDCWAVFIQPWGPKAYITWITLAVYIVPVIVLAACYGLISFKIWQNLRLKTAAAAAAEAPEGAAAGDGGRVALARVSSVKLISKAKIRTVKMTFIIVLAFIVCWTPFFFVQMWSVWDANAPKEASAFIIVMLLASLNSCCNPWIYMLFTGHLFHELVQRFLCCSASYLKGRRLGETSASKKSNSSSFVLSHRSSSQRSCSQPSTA
In words: Oxytocin binding in Chinese Hamster Ovary cell membranes expressing human oxytocin receptors. The note with it: 100 nM, CHO cell membranes, [3H]oxytocin, values without parentheses.
As to `COc1cccc(-c2cc(OC)c(C(=O)N3Cc4ccc(C(=O)N5CCC[C@H]5CN5CCCC5)n4Cc4ccccc43)cc2Cl)c1` [Example 268, {10-[(6-Chloro-3,3′-dimethoxy[1,1′-biphenyl]-4-yl)carbonyl]-10,11-dihydro-5H-pyrrolo[2,1-c][1,4]benzodiazepin-3-yl}[(2S)-2-(1-pyrrolidinylmethyl)pyrrolidinyl]methanone], the “OT % inhibition @ 100% nM” value stood at 90%.
Consider `Cc1cc(C(=O)N2Cc3ccc(C(=O)NCCCN(C)C)n3Cc3ccccc32)ccc1-c1ccccc1C(F)(F)F` [Example 84, N-[3-(Dimethylamino)propyl]-10-{[2-methyl-2′-(trifluoromethyl)[1,1′-biphenyl]-4-yl]carbonyl}-10,11-dihydro-5H-pyrrolo[2,1-c][1 .4]benzodiazepine-3-carboxamide], for which the “OT % inhibition @ 100% nM” value is reported as 48%.

The same assay, now with this note: 100 nM, CHO cell membranes, [3H]oxytocin, values without parentheses, read-out: OT % inhibition @ 100% nM.
Take `COc1cc(C(=O)N2Cc3ccc(C(=O)NCCCn4ccnc4)n3Cc3ccccc32)ccc1-c1ccccc1C` [Example 128, N-[3-(1H-Imidazol-1-yl)propyl]-10-[(2-methoxy-2′-methyl[1,1′-biphenyl]-4-yl)carbonyl]-10,11-dihydro-5H-pyrrolo[2,1-c][1,4]benzodiazepine-3-carboxamide]: the inhibition at 0.1 µM was determined as 43%.
Consider `Cc1ccccc1-c1ccc(C(=O)N2Cc3ccc(C(=O)N4CCC(N5CCCCC5)CC4)n3Cc3ccccc32)cc1C` [Example 113, {10-[(2-Methyl-2′-methyl[1,1′-biphenyl]-4-yl)carbonyl]-10,11-dihydro-5H-pyrrolo[2,1-c][1,4]benzodiazepin-3-yl}[4-(1-piperidinyl)-1-piperidinyl]methanone], for which the inhibition at 0.1 µM came to 97%.
For `COc1cccc(-c2ccc(C(=O)N3Cc4ccc(C(=O)NCCCn5ccnc5)n4Cc4ccccc43)cc2C)c1` [Example 125, N-[3-(1H-Imidazol-1-yl)propyl]-10-[(3′-methoxy-2-methyl[1,1′-biphenyl]-4-yl)carbonyl]-10,11-dihydro-5H-pyrrolo[2,1-c][1,4]benzodiazepine-3-carboxamide], the inhibition at 0.1 µM amounted to 36%.
Regarding `Cc1cc(C(=O)N2Cc3ccc(C(=O)N4CCC(N5CCCC5)CC4)n3Cc3ccccc32)ccc1-c1ccccc1C(F)(F)F` [Example 148, (10-{[2-Methyl-2′-(trifluoromethyl)[1,1′-biphenyl]-4-yl]carbonyl}-10,11-dihydro-5H-pyrrolo[2,1-c][1,4]benzodiazepin-3-yl)[4-(1-pyrrolidinyl)-1-piperidinyl]methanone], the inhibition at 0.1 µM was determined as 78%.
Turning to `COc1cccc(-c2ccc(C(=O)N3Cc4ccc(C(=O)N5CCC(N6CCCC6)CC5)n4Cc4ccccc43)cc2OC)c1` [Example 146, {10-[(2,3′-Dimethoxy[1,1′-biphenyl]-4-yl)carbonyl]-10,11-dihydro-5H-pyrrolo[2,1-c][1,4]benzodiazepin-3-yl}[4-(1-pyrrolidinyl)-1-piperidinyl]methanone], the inhibition at 0.1 µM turned out to be 78%.
As for `Cc1cc(C(=O)N2Cc3ccc(C(=O)N4CCC(N5CCCCC5)CC4)n3Cc3ccccc32)ccc1-c1ccccc1C(F)(F)F` [Example 122, {10-[(2-Methyl-2′-(trifluoromethyl) -[1,1′-biphenyl]-4-yl)carbonyl]-10,11-dihydro-5H -pyrrolo[2,1-c][1,4]benzodiazepin-3-yl}[4-(1-piperidinyl)-1-piperidinyl]methanone], the inhibition at 0.1 µM is 77%.
Regarding `COc1cccc(-c2ccc(C(=O)N3Cc4ccc(C(=O)N5CCC(N6CCCCC6)CC5)n4Cc4ccccc43)cc2C)c1` [Example 114, {10-[(2-Methyl-3′-methoxy[1,1′-biphenyl]-4-yl)carbonyl]-10,11-dihydro-5H-pyrrolo[2,1-c][1,4]benzodiazepin-3-yl}[4-(1-piperidinyl)-1-piperidinyl]methanone], the inhibition at 0.1 µM came out at 76%.
On to `COc1cccc(-c2ccc(C(=O)N3Cc4ccc(C(=O)NCCCn5ccnc5)n4Cc4ccccc43)cc2OC)c1` [Example 133, 10-[(2,3′-Dimethoxy[1,1′-biphenyl]4-yl)carbonyl]-N-[3-(1H-imidazol-1-yl)propyl]-10,11-dihydro-5H-pyrrolo[2,1-c][1,4]benzodiazepine-3-carboxamide], for which the inhibition at 0.1 µM stood at 46%.
